# Data: patent US20150148235A1, “HERBICIDE-RESISTANT SUNFLOWER PLANTS WITH MULTIPLE HERBICIDE RESISTANT ALLELES OF AHASL1 AND METHODS OF USE” (NIDERA S.A., priority 2013, published 2015)
# Test system: sunflower lines and hybrids carrying A122T and/or A205V AHASL1 alleles
# Assay: Greenhouse whole-plant response to imazapyr doses (height, Phytotoxicity Index, dry biomass), Example 2
# Assay type: in vivo, Helianthus annuus
# Details: 14 DAT
# Experimental: Seeds were sown in Petri dishes and, after germination, plantlets were transplanted to pots of 10 cm of diameter in a potting media consisting of equal parts of vermiculite, soil and sand. Plants were grown in a greenhouse under natural light conditions supplemented with 400 W sodium halide lamps to provide a 16 hr daylength. Day/night temperatures were 25 and 20° C., respectively. At the V2-V4 stage (Schneiter & Miller (1981) Crop Sci. 21:901-903) 10 plants of each genotype were randomly assigned to each treatment consisting of eight imazapyr doses (0, 40, 80, 160, 240, 320, 400 and 480 g ai/ha, corresponding to untreated, 0.5×, 1×, 2×, 3×, 4×, 5× and 6×, respectively), and a zero-time biomass determination. Experiment was arranged as a randomized block design with a full factorial (sunflower line×treatment) arrangement of treatments and 10 replications.
# On the day of herbicide application ten plants of each genotype were cut at the cotyledonal node and dried at 60° C. for 48 hrs for zero-time dried weight determination.
# The remaining plants were maintained for 14 days after imazapyr treatment (DAT) and their height, Phytotoxicity Index (PI) and above ground dry biomass were determined Height was determined as the distance between the cotyledonal node and the apex of each plant. Above ground biomass data from each line were converted to biomass accumulation after application by subtracting the appropriate average zero-time biomass from each sample. Dry biomass data were converted to percentages of the untreated control plants within each line to allow direct comparisons between groups.
# [1] = H1 (A205V hybrid), 0.5x=40 g ai/ha
# [2] = H2 (A122T hybrid), 0.5x=40 g ai/ha
# [3] = H2 (A122T hybrid), 5x=400 g ai/ha
# [4] = H3 (A122T/A205V hybrid), 1x=80 g ai/ha
# [5] = H3 (A122T/A205V hybrid), 4x=320 g ai/ha
# [6] = H3 (A122T/A205V hybrid), 6x=480 g ai/ha
# [7] = H4 (A122T/A205V hybrid), 0.5x=40 g ai/ha
# [8] = H4 (A122T/A205V hybrid), 2x=160 g ai/ha
# [9] = H4 (A122T/A205V hybrid), 3x=240 g ai/ha
compound,measurement,setting,value
CC(C)C1(C)N=C(c2ncccc2C(=O)O)NC1=O (stereo not drawn) [imazapyr],"Difference between A205V vs A205V/A122T, Phytotoxicity Index",0.5x=40 g ai/ha,−0.50
same,"Difference between A205V vs A205V/A122T, biomass accumulation",0.5x=40 g ai/ha,−4.33 % of untreated
same,"Difference between A205V vs A205V/A122T, plant height",0.5x=40 g ai/ha,0.21 % of untreated
same,"Difference between A1222T vs A205V/A122T, plant height",0.5x=40 g ai/ha,0.49 % of untreated
same,"ifference between A1222T vs A205V/A122T, Phytotoxicity Index",0.5x=40 g ai/ha,−0.21
same,"ifference between A1222T vs A205V/A122T, biomass accumulation",0.5x=40 g ai/ha,−0.76 % of untreated
same,"Difference between A205V vs A205V/A122T, Phytotoxicity Index",1x=80 g ai/ha,−0.50
same,"Difference between A205V vs A205V/A122T, biomass accumulation",1x=80 g ai/ha,−13.45 % of untreated
same,"Difference between A205V vs A205V/A122T, plant height",1x=80 g ai/ha,0.89 % of untreated
same,"Difference between A1222T vs A205V/A122T, plant height",1x=80 g ai/ha,1.21 % of untreated
same,"ifference between A1222T vs A205V/A122T, Phytotoxicity Index",1x=80 g ai/ha,−0.21
same,"ifference between A1222T vs A205V/A122T, biomass accumulation",1x=80 g ai/ha,−2.17 % of untreated
same,"Difference between A205V vs A205V/A122T, Phytotoxicity Index",2x=160 g ai/ha,1.66
same,"Difference between A205V vs A205V/A122T, biomass accumulation",2x=160 g ai/ha,−30.47 % of untreated
same,"Difference between A205V vs A205V/A122T, plant height",2x=160 g ai/ha,−24.63 % of untreated
same,"Difference between A1222T vs A205V/A122T, plant height",2x=160 g ai/ha,−0.32 % of untreated
same,"ifference between A1222T vs A205V/A122T, Phytotoxicity Index",2x=160 g ai/ha,−0.20
same,"ifference between A1222T vs A205V/A122T, biomass accumulation",2x=160 g ai/ha,−1.07 % of untreated
same,"Difference between A205V vs A205V/A122T, Phytotoxicity Index",3x=240 g ai/ha,4.65
same,"Difference between A205V vs A205V/A122T, biomass accumulation",3x=240 g ai/ha,−41.42 % of untreated
same,"Difference between A205V vs A205V/A122T, plant height",3x=240 g ai/ha,−46.79 % of untreated
same,"Difference between A1222T vs A205V/A122T, plant height",3x=240 g ai/ha,−1.22 % of untreated
same,"ifference between A1222T vs A205V/A122T, Phytotoxicity Index",3x=240 g ai/ha,−0.17
same,"ifference between A1222T vs A205V/A122T, biomass accumulation",3x=240 g ai/ha,0.55 % of untreated
same,"Difference between A205V vs A205V/A122T, Phytotoxicity Index",4x=320 g ai/ha,6.92
same,"Difference between A205V vs A205V/A122T, biomass accumulation",4x=320 g ai/ha,−52.87 % of untreated
same,"Difference between A205V vs A205V/A122T, plant height",4x=320 g ai/ha,−62.01 % of untreated
same,"Difference between A1222T vs A205V/A122T, plant height",4x=320 g ai/ha,1.15 % of untreated
same,"ifference between A1222T vs A205V/A122T, Phytotoxicity Index",4x=320 g ai/ha,0.00
same,"ifference between A1222T vs A205V/A122T, biomass accumulation",4x=320 g ai/ha,−0.73 % of untreated
same,"Difference between A205V vs A205V/A122T, Phytotoxicity Index",5x=400 g ai/ha,7.59
same,"Difference between A205V vs A205V/A122T, biomass accumulation",5x=400 g ai/ha,−46.69 % of untreated
same,"Difference between A205V vs A205V/A122T, plant height",5x=400 g ai/ha,−48.59 % of untreated
same,"Difference between A1222T vs A205V/A122T, plant height",5x=400 g ai/ha,9.12 % of untreated
same,"ifference between A1222T vs A205V/A122T, Phytotoxicity Index",5x=400 g ai/ha,0.21
same,"ifference between A1222T vs A205V/A122T, biomass accumulation",5x=400 g ai/ha,−1.14 % of untreated
same,"Difference between A205V vs A205V/A122T, Phytotoxicity Index",6x=480 g ai/ha,7.19
same,"Difference between A205V vs A205V/A122T, biomass accumulation",6x=480 g ai/ha,−41.41 % of untreated
same,"Difference between A205V vs A205V/A122T, plant height",6x=480 g ai/ha,−31.39 % of untreated
same,"Difference between A1222T vs A205V/A122T, plant height",6x=480 g ai/ha,19.49 % of untreated
same,"ifference between A1222T vs A205V/A122T, Phytotoxicity Index",6x=480 g ai/ha,0.17
same,"ifference between A1222T vs A205V/A122T, biomass accumulation",6x=480 g ai/ha,2.41 % of untreated
same,Height reduction,"A122T homozygous lines, 0.5x",0.1%
same,Biomass weight reduction,"A122T homozygous, higher dose (6x)",25%
same,Height versus untreated controls,"A205V homozygous lines and hybrid, 0.5x or 1x",did not differ from the untreated controls
same,Phytotoxicity Index (scale 0-9),[1],0
same,biomass accumulation (dry),[1],95.0 % of untreated
same,Phytotoxicity Index (scale 0-9),"H1 (A205V hybrid), 1x=80 g ai/ha",0
same,Phytotoxicity Index (scale 0-9),"H1 (A205V hybrid), 2x=160 g ai/ha",1.8
same,Phytotoxicity Index (scale 0-9),"H1 (A205V hybrid), 3x=240 g ai/ha",6.4
same,Phytotoxicity Index (scale 0-9),"H1 (A205V hybrid), 4x=320 g ai/ha",8.0
same,Phytotoxicity Index (scale 0-9),"H1 (A205V hybrid), 5x=400 g ai/ha",8.9
same,Phytotoxicity Index (scale 0-9),"H1 (A205V hybrid), 6x=480 g ai/ha",9.0
same,Phytotoxicity Index (scale 0-9),[2],0.5
same,biomass accumulation (dry),[2],100 % of untreated
same,Phytotoxicity Index (scale 0-9),"H2 (A122T hybrid), 1x=80 g ai/ha",0.5
same,Phytotoxicity Index (scale 0-9),"H2 (A122T hybrid), 2x=160 g ai/ha",0.5
same,Phytotoxicity Index (scale 0-9),"H2 (A122T hybrid), 3x=240 g ai/ha",0.5
same,Phytotoxicity Index (scale 0-9),"H2 (A122T hybrid), 4x=320 g ai/ha",0.5
same,Phytotoxicity Index (scale 0-9),[3],0.5
same,plant height,[3],87.0 % of untreated
same,Phytotoxicity Index (scale 0-9),"H2 (A122T hybrid), 6x=480 g ai/ha",0.5
same,Phytotoxicity Index (scale 0-9),"H3 (A122T/A205V hybrid), 0.5x=40 g ai/ha",0.5
same,Phytotoxicity Index (scale 0-9),[4],0.5
same,biomass accumulation (dry),[4],100.0 % of untreated
same,plant height,[4],97.0 % of untreated
same,Phytotoxicity Index (scale 0-9),"H3 (A122T/A205V hybrid), 2x=160 g ai/ha",0.5
same,Phytotoxicity Index (scale 0-9),"H3 (A122T/A205V hybrid), 3x=240 g ai/ha",0.5
same,Phytotoxicity Index (scale 0-9),[5],0.5
same,plant height,[5],92.0 % of untreated
same,Phytotoxicity Index (scale 0-9),"H3 (A122T/A205V hybrid), 5x=400 g ai/ha",0.6
same,Phytotoxicity Index (scale 0-9),[6],1.0
same,plant height,[6],58.0 % of untreated
same,Phytotoxicity Index (scale 0-9),[7],0.0
same,plant height,[7],100.0 % of untreated
same,Phytotoxicity Index (scale 0-9),"H4 (A122T/A205V hybrid), 1x=80 g ai/ha",0.0
same,Phytotoxicity Index (scale 0-9),[8],0.0
same,plant height,[8],100.0 % of untreated
same,Phytotoxicity Index (scale 0-9),[9],0.0
same,plant height,[9],100.0 % of untreated
same,Phytotoxicity Index (scale 0-9),"H4 (A122T/A205V hybrid), 4x=320 g ai/ha",0.0
